{"source": "patent US11096865B2", "about": "“Preservative removal from eye drops” (TearClear Corp., priority 2019, dated 2021)", "test": "30 day drop test, API retention after dropper tip packed with OxPO", "format": "physicochemical", "settings": "for API concentration in drops: tip packed with OxHDPE A-C 395, 125-250 μm, acid washed", "protocol": "To 60.0 g of ultrapure water was added 0.090 g hydroxyethyl cellulose (Natrosol 250H) and the solution was stirred overnight to dissolve. Subsequently, 0.176 g sodium citrate dihydrate and 0.960 g mannitol were added and the mixture was stirred until completely dissolved. 1.37 g Dorzolamide Hydrochloride, 0.420 g Timolol Maleate and 0.045 g of a 10% aqueous solution of BAK were added and incorporated. The pH was adjusted to 5.65 with 0.01N NaOH solution. The final nominal concentrations are reported below.\nAn empty dropper tip equipped with a 25 μm filter at the tip exit was packed with approximately […] of OxPO and the backing filter was attached to retain the OxPO packing in place. The weight of the OxPO packing was recorded. The packed tip was then inserted into the neck of an 8 ml dropper bottle containing 5 ml of the API/BAK test solution.\n5 ml of the formulation described above containing nominally 5.0 mg/ml Timolol, 20.0 mg/ml Dorzolamide and 75 μg/ml BAK was loaded into six eyedropper bottles packed with OxHDPE (A-C 395, 125-250 μm, acid washed) as described above. Drops were obtained from each bottle twice a day (AM and PM 8 hours apart) and analyzed by HPLC for API and BAK."}
{"smiles": "CC(C)(C)NC[C@H](O)COc1nsnc1N1CCOCC1", "note": "[Timolol]", "values": [{"measurement": "API concentration in drops", "setting": "Day 1A", "result": 4.93, "unit": "mg/mL"}, {"measurement": "API concentration in drops", "setting": "Day 1P", "result": 4.91, "unit": "mg/mL"}, {"measurement": "API concentration in drops", "setting": "Day 2A", "result": 4.51, "unit": "mg/mL"}, {"measurement": "API concentration in drops", "setting": "Day 2P", "result": 4.64, "unit": "mg/mL"}, {"measurement": "API concentration in drops", "setting": "Day 3A", "result": 4.60, "unit": "mg/mL"}, {"measurement": "API concentration in drops", "setting": "Day 3P", "result": 4.65, "unit": "mg/mL"}, {"measurement": "API concentration in drops", "setting": "Day 4A", "result": 4.59, "unit": "mg/mL"}, {"measurement": "API concentration in drops", "setting": "Day 4P", "result": 4.72, "unit": "mg/mL"}, {"measurement": "API concentration in drops", "setting": "Day 5A", "result": 4.68, "unit": "mg/mL"}, {"measurement": "API concentration in drops", "setting": "Day 5P", "result": 4.78, "unit": "mg/mL"}, {"measurement": "API concentration in drops", "setting": "Day 6A", "result": 4.76, "unit": "mg/mL"}, {"measurement": "API concentration in drops", "setting": "Day 6P", "result": 4.90, "unit": "mg/mL"}, {"measurement": "API concentration in drops", "setting": "Day 7A", "result": 4.86, "unit": "mg/mL"}, {"measurement": "API concentration in drops", "setting": "Day 7P", "result": 4.91, "unit": "mg/mL"}, {"measurement": "API concentration in drops", "setting": "Day 8A", "result": 4.85, "unit": "mg/mL"}, {"measurement": "API concentration in drops", "setting": "Day 8P", "result": 4.89, "unit": "mg/mL"}, {"measurement": "API concentration in drops", "setting": "Day 9A", "result": 4.84, "unit": "mg/mL"}, {"measurement": "API concentration in drops", "setting": "Day 9P", "result": 4.87, "unit": "mg/mL"}, {"measurement": "API concentration in drops", "setting": "Day 10A", "result": 4.89, "unit": "mg/mL"}, {"measurement": "API concentration in drops", "setting": "Day 10P", "result": 4.90, "unit": "mg/mL"}, {"measurement": "API concentration in drops", "setting": "Day 11A", "result": 4.89, "unit": "mg/mL"}, {"measurement": "API concentration in drops", "setting": "Day 11P", "result": 4.96, "unit": "mg/mL"}, {"measurement": "API concentration in drops", "setting": "Day 12A", "result": 4.86, "unit": "mg/mL"}, {"measurement": "API concentration in drops", "setting": "Day 12P", "result": 4.95, "unit": "mg/mL"}, {"measurement": "API concentration in drops", "setting": "Day 13A", "result": 4.89, "unit": "mg/mL"}, {"measurement": "API concentration in drops", "setting": "Day 13P", "result": 4.93, "unit": "mg/mL"}, {"measurement": "API concentration in drops", "setting": "Day 14A", "result": 4.86, "unit": "mg/mL"}, {"measurement": "API concentration in drops", "setting": "Day 14P", "result": 4.97, "unit": "mg/mL"}, {"measurement": "API concentration in drops", "setting": "Day 15A", "result": 4.87, "unit": "mg/mL"}, {"measurement": "API concentration in drops", "setting": "Day 15P", "result": 4.93, "unit": "mg/mL"}, {"measurement": "API concentration in drops", "setting": "Day 16A", "result": 4.90, "unit": "mg/mL"}, {"measurement": "API concentration in drops", "setting": "Day 16P", "result": 5.01, "unit": "mg/mL"}, {"measurement": "API concentration in drops", "setting": "Day 17A", "result": 4.90, "unit": "mg/mL"}, {"measurement": "API concentration in drops", "setting": "Day 17P", "result": 4.97, "unit": "mg/mL"}, {"measurement": "API concentration in drops", "setting": "Day 18A", "result": 4.98, "unit": "mg/mL"}, {"measurement": "API concentration in drops", "setting": "Day 18P", "result": 4.97, "unit": "mg/mL"}, {"measurement": "API concentration in drops", "setting": "Day 19A", "result": 4.87, "unit": "mg/mL"}, {"measurement": "API concentration in drops", "setting": "Day 19P", "result": 4.98, "unit": "mg/mL"}, {"measurement": "API concentration in drops", "setting": "Day 20A", "result": 4.99, "unit": "mg/mL"}, {"measurement": "API concentration in drops", "setting": "Day 20P", "result": 5.02, "unit": "mg/mL"}, {"measurement": "API concentration in drops", "setting": "Day 21A", "result": 4.92, "unit": "mg/mL"}, {"measurement": "API concentration in drops", "setting": "Day 21P", "result": 4.95, "unit": "mg/mL"}, {"measurement": "API concentration in drops", "setting": "Day 22A", "result": 4.98, "unit": "mg/mL"}, {"measurement": "API concentration in drops", "setting": "Day 22P", "result": 4.93, "unit": "mg/mL"}, {"measurement": "API concentration in drops", "setting": "Day 23A", "result": 4.96, "unit": "mg/mL"}, {"measurement": "API concentration in drops", "setting": "Day 23P", "result": 4.97, "unit": "mg/mL"}, {"measurement": "API concentration in drops", "setting": "Day 24A", "result": 4.94, "unit": "mg/mL"}, {"measurement": "API concentration in drops", "setting": "Day 24P", "result": 4.96, "unit": "mg/mL"}, {"measurement": "API concentration in drops", "setting": "Day 25A", "result": 4.90, "unit": "mg/mL"}, {"measurement": "API concentration in drops", "setting": "Day 25P", "result": 4.93, "unit": "mg/mL"}, {"measurement": "API concentration in drops", "setting": "Day 26A", "result": 4.97, "unit": "mg/mL"}, {"measurement": "API concentration in drops", "setting": "Day 26P", "result": 4.96, "unit": "mg/mL"}, {"measurement": "API concentration in drops", "setting": "Day 27A", "result": 4.96, "unit": "mg/mL"}, {"measurement": "API concentration in drops", "setting": "Day 27P", "result": 4.97, "unit": "mg/mL"}, {"measurement": "API concentration in drops", "setting": "Day 28A", "result": 4.93, "unit": "mg/mL"}, {"measurement": "API concentration in drops", "setting": "Day 28P", "result": 4.95, "unit": "mg/mL"}, {"measurement": "API concentration in drops", "setting": "Day 29A", "result": 4.90, "unit": "mg/mL"}, {"measurement": "API concentration in drops", "setting": "Day 29P", "result": 4.93, "unit": "mg/mL"}, {"measurement": "API concentration in drops", "setting": "Day 30A", "result": 4.98, "unit": "mg/mL"}, {"measurement": "API concentration in drops", "setting": "Day 30P", "result": 4.97, "unit": "mg/mL"}, {"measurement": "API concentration", "setting": "Initial formulation", "result": "5.04 (mg/ml)"}]}
